Laboratory results taken from ChEMBL document CHEMBL1138973, “Opiate receptor binding properties of morphine-, dihydromorphine-, and codeine 6-O-sulfate ester congeners” (Bioorg Med Chem Lett, 2006).

Legend:
Mu-type opioid receptor = Mu-type opioid receptor (Cavia porcellus, UniProt P97266); assay: Displacement of radiolabeled DAMGO from mu opioid receptor in Hartley guinea pig brain
[1] = target: Kappa-type opioid receptor (Cavia porcellus, UniProt P41144); assay: Displacement of radiolabeled U69593 from kappa1 opioid receptor in Hartley guinea pig brain
Chain of Kappa-type opioid receptor (P41144 whole entry): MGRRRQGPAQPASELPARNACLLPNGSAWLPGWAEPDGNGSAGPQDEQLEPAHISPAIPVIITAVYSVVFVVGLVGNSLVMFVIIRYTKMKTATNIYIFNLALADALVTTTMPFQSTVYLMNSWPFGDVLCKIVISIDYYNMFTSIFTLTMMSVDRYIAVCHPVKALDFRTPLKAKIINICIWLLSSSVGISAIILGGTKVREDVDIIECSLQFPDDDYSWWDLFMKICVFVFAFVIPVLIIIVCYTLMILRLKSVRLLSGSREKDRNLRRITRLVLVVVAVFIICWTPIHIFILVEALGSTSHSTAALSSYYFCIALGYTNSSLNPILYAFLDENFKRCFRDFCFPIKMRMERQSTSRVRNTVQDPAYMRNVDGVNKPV

[2] = Plasma half life in rat; format: ADME, organism-based

Chain of Mu-type opioid receptor (P97266 whole entry): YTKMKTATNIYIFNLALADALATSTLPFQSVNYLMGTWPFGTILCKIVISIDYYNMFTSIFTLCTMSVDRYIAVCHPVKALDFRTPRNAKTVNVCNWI

| SMILES | Ki (Mu-type opioid receptor) | Ki [1] | half-life [2] |
| --- | --- | --- | --- |
| CN1CC[C@]23c4c5ccc(OS(=O)(=O)O)c4O[C@H]2[C@@H](O)C=C[C@H]3[C@H]1C5 | 0.101 µM | > 10 µM |  |
| COc1ccc2c3c1O[C@H]1[C@@H](OS(=O)(=O)O)CC[C@H]4[C@@H](C2)N(C)CC[C@@]341 | 0.196 µM | > 10 µM |  |
| COc1ccc2c3c1O[C@H]1[C@@H](OS(=O)(=O)O)C=C[C@H]4[C@@H](C2)N(C)CC[C@@]341 | 0.0387 µM | > 10 µM |  |
| CN1CC[C@]23c4c5ccc(O)c4O[C@H]2[C@@H](OS(=O)(=O)O)C=C[C@H]3[C@H]1C5 | 0.0009 µM |  |  |
| CC1(C)SSC(C)(C)[C@@H](NC(=O)[C@@H](N)Cc2ccc(O)cc2)C(=O)NCC(=O)N[C@@H](Cc2ccc(Cl)cc2)C(=O)N[C@H]1C(=O)O |  | > 10 µM |  |
| CN1CC[C@]23c4c5ccc(OC(=O)c6ccccc6)c4O[C@H]2[C@@H](OS(=O)(=O)O)C=C[C@H]3[C@H]1C5 | 0.0369 µM | > 10 µM |  |
| C[N+]1(C)CC[C@]23c4c5ccc(OC(=O)c6ccccc6)c4O[C@H]2[C@@H](OS(=O)(=O)[O-])C=C[C@H]3[C@H]1C5 | 0.444 µM | > 10 µM |  |
| CC(C)C(=O)Oc1ccc2c3c1O[C@H]1[C@@H](OS(=O)(=O)O)C=C[C@H]4[C@@H](C2)N(C)CC[C@@]341 | 0.0198 µM |  |  |
| CN1CC[C@]23c4c5ccc(OC(=O)C(C)(C)C)c4O[C@H]2[C@@H](OS(=O)(=O)O)C=C[C@H]3[C@H]1C5 | 0.0007 µM |  |  |
| CN1CC[C@]23c4c5ccc(OC(=O)c6ccccc6)c4O[C@H]2[C@@H](OS(=O)(=O)O)CC[C@H]3[C@H]1C5 | 0.0618 µM | > 10 µM |  |
| CC(=O)Oc1ccc2c3c1O[C@H]1[C@@H](OS(=O)(=O)O)C=C[C@H]4[C@@H](C2)N(C)CC[C@@]341 | 0.0008 µM |  | > 1 h |
| C=CCN1CCC23c4c5ccc(O)c4O[C@@H]2/C(=N/NC(=O)c2ccccc2)CCC3(O)C1C5 (some centres undefined) | 0.0002 µM | 0.0004 µM |  |
| CC(=O)Oc1ccc2c3c1O[C@H]1[C@@H](OS(=O)(=O)[O-])C=C[C@H]4[C@@H](C2)[N+](C)(C)CC[C@@]341 | 0.0342 µM | > 10 µM | > 1 h |
| CCC(=O)Oc1ccc2c3c1O[C@H]1[C@@H](OS(=O)(=O)O)C=C[C@H]4[C@@H](C2)N(C)CC[C@@]341 | 0.0006 µM |  |  |
| CN1CC[C@]23c4c5ccc(O)c4O[C@H]2[C@@H](OS(=O)(=O)O)CC[C@H]3[C@H]1C5 | 0.0015 µM | 3.13 µM |  |
| CC(=O)Oc1ccc2c3c1O[C@H]1[C@@H](OS(=O)(=O)O)CC[C@H]4[C@@H](C2)N(C)CC[C@@]341 | 0.0137 µM | > 10 µM | > 1 h |
